Where no end group is shown, it is not given here. [ ]: non-standard residue; d: D form.
Test system: IEC6 cells
Assay: Real-Time Cell Electronic Sensing (RT-CES, ACEA) assay of cell morphology change
Assay type: cell-based
Parameters: key: + indicates an enhancement of the permeability of the tight junctions were observed; − indicates no enhancement of permeability was observed
Conditions: peptide at 5 mg/mL
Description: Agonists of tight junctions can be identified by their ability to induce changes in morphology of cells in a monolayer of cells that comprise tight junctions. Such changes in the morphology of IEC6 cells may be measured using a Real-Time Cell Electronic Sensing protocol as described below.
Tight junction agonists can be identified using the following method an used in peptide conjugates of the invention:
Materials: cells: IEC6 passage 30-50, medium: DMEM 10% no calcium no magnesium, foetal bovine serum 0.1 unit per ml bovine insulin, buffers: phosphate buffered saline (PBS) no calcium no magnesium, trypsin: 0.25% porcine trypsin in HBSS no calcium no magnesium, flasks: 100×20 mm Tissue culture dish Falcon, plates: 16× E-Plate, machine: RT-CES™ 16× system (ACEA Biosciences, Inc., San Diego, Calif.)
Wash a 75 cm^2 flask of confluent IEC6 cells twice with 25 ml of PBS.
Add 2.5 ml of trypsin to the flask and place back in the incubator at 37° C.
Wash cells from the surface of the flask with 10 ml of serum containing media to quench the trypsin.
Pellet the cells by centrifugation at 1500 rpm for 5 minutes aspirate the media.
Resuspend the cell pellet in 10 ml of serum free media and centrifuge at 1500 rpm for 5 minutes aspirate the media and repeat for a total of 5 washes.
Take 100 μl of cells and mix with 100 μl of trypan blue.
Count the cells four times and use the average cell concentration.
Dilute the cells to 1×10^6 per ml in serum free media.
Add 100 μl of serum free media to each well of the ACEA plates to be used.
Insert the ACEA plate and press scan.
Run step 1 of the program to measure background.
Add 50 μl of cells to each well of the ACEA plate tap each slide of the plate 10 times and place the cells on the bench for 15 minutes to allow the cells to settle.
Insert the ACEA plate and run the scan step to check connections and run step 2-1 and 2-2 overnight.
Step 2-1 sample every 2 minutes 30 times.
Step 2-2 sample every 15 minutes 100 times.
The cell indices should be between 6-10 after the overnight run and should have reached a plateau.
Remove 100 μl of media carefully from each well.
Make up the compounds to be tested so that 50 μl contains 2× the desired final concentration.
Add 50 μl of compounds to the designated wells.
Scan the plate to check connections.
Step 3-1 sample every 2 minutes 30 times.
Step 3-2 sample every 15 minutes 100 times.

Row | Substance | ACEA 5 mg/mL
1 | 24 ([dL]RGICF; not fully specified; printed as D-Leu-Arg-Gly-Ile-Cys-Phe) [compound 24] | +
2 | 14 (FC[dI]GRL; also: peptide conjugate) [compound 14] | −
3 | 19 ([dL][dR]G[dI]C[dF]; not fully specified; printed as D-Leu-D-Arg-Gly-D-Ile-Cys-D-Phe) [compound 19] | +
4 | 29 ([dF][dC][dI]G[dR][dL]; not fully specified; printed as D-Phe-D-Cys-D-Ile-Gly-D-Arg-D-Leu) [compound 29] | −
5 | 18 ([dL][dR]G[dI][dC]F; not fully specified; printed as D-Leu-D-Arg-Gly-D-Ile-D-Cys-Phe) [compound 18] | +

Test system: CaCo2 monolayers
Assay: Epithelial flux of Lucifer Yellow through cell monolayer
Assay type: cell-based
Parameters: key to Enhanced LY permeability: + indicates an enhancement of the permeability of the tight junctions were observed; − indicates no enhancement of permeability was observed
Conditions: Lucifer Yellow flux, Caco-2 monolayer
Procedure, shortened: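 Caco-2 cells (passage 40-60) grown 21-28 days on Transwell filters, equilibrated 30 min at 37 °C in HBSS-HEPES pH 7.4; Lucifer Yellow with test compound applied apically, n=3 filters. Basolateral samples at 60, 120, 180 min read by fluorescence at 485/535 nm against standard curve; TEER also measured.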

Row | Substance | Enhanced LY permeability
6 | 24 ([dL]RGICF; not fully specified; printed as D-Leu-Arg-Gly-Ile-Cys-Phe) [compound 24] | −
7 | 14 (FC[dI]GRL; also: peptide conjugate) [compound 14] | +
8 | 19 ([dL][dR]G[dI]C[dF]; not fully specified; printed as D-Leu-D-Arg-Gly-D-Ile-Cys-D-Phe) [compound 19] | +
9 | 29 ([dF][dC][dI]G[dR][dL]; not fully specified; printed as D-Phe-D-Cys-D-Ile-Gly-D-Arg-D-Leu) [compound 29] | +
10 | 18 ([dL][dR]G[dI][dC]F; not fully specified; printed as D-Leu-D-Arg-Gly-D-Ile-D-Cys-Phe) [compound 18] | +

Test system: CaCo2 monolayers
Assay: Trans Epithelial Electric Resistance (TEER) across cell monolayer
Assay type: cell-based
Parameters: key to Reduced TEER: + indicates an enhancement of the permeability of the tight junctions were observed; − indicates no enhancement of permeability was observed
Conditions: Caco-2 monolayer
Procedure, shortened: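 Caco-2 cells, passage 40-60, grown 21-28 days on Transwell filters, equilibrated 30 min at 37° C in MHBSS pH 7.4. Test compound with Lucifer Yellow applied apically (n=3), incubated at 37° C with 50 RPM shaking; TEER measured at baseline and at 30, 60, 120 and 180 min.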

Row | Substance | Reduced TEER
11 | 24 ([dL]RGICF; not fully specified; printed as D-Leu-Arg-Gly-Ile-Cys-Phe) [compound 24] | −
12 | 14 (FC[dI]GRL; also: peptide conjugate) [compound 14] | +
13 | 19 ([dL][dR]G[dI]C[dF]; not fully specified; printed as D-Leu-D-Arg-Gly-D-Ile-Cys-D-Phe) [compound 19] | +
14 | 29 ([dF][dC][dI]G[dR][dL]; not fully specified; printed as D-Phe-D-Cys-D-Ile-Gly-D-Arg-D-Leu) [compound 29] | +
15 | 18 ([dL][dR]G[dI][dC]F; not fully specified; printed as D-Leu-D-Arg-Gly-D-Ile-D-Cys-Phe) [compound 18] | +
